Test results published in US20260207585A1, “METHODS AND COMPOSITIONS FOR THE TREATMENT OF PARKINSON'S DISEASE, HUNTINGTON'S DISEASE, AMYOTROPHIC LATERAL SCLEROSIS, AND LEARNING DISORDERS” (Cedars-Sinai Medical Center, priority 2022, published 2026).
Where two headings read alike, the source gives them in different places.

Experiments:
ASH1L = ASH1L (Homo sapiens, UniProt Q9NR48); test: Methyltransferase inhibition panel: ASH1L; assay type: biochemical
Experimental: (§1) The ability of ETP69 to inhibit methyltransferases was tested.

DNMT3a = DNMT3a (Homo sapiens, UniProt Q9Y6K1); test: Methyltransferase inhibition panel: DNMT3a; assay type: biochemical; conditions: NT1721 20 μM; substrate Lambda DNA 0.0075 mg/mL
Experimental: as §1

DOT1L = DOT1L (Homo sapiens, UniProt Q8TEK3); test: Methyltransferase inhibition panel: DOT1L; assay type: biochemical
Experimental: as §1

EZH1 Complex = EZH1 Complex (Homo sapiens, UniProt Q92800); test: Methyltransferase inhibition panel: EZH1 Complex; assay type: biochemical; conditions: NT1721 20 μM; substrate Core Histone 0.05 mg/mL
Experimental: as §1

MLL3 Complex = MLL3 Complex (Homo sapiens, UniProt Q8NEZ4); test: Methyltransferase inhibition panel: MLL3 Complex; assay type: biochemical
Experimental: as §1

MLL4 Complex = MLL4 Complex (Homo sapiens, UniProt Q9UMN6); test: Methyltransferase inhibition panel: MLL4 Complex; assay type: biochemical
Experimental: as §1

PRMT4 = PRMT4 (Homo sapiens, UniProt Q86X55); test: Methyltransferase inhibition panel: PRMT4; assay type: biochemical
Experimental: as §1

PRMT7 = molecular target: T1, PRMT7 (Homo sapiens, UniProt Q9NVM4); test: Methyltransferase inhibition panel: PRMT7; assay type: biochemical
T1 sequence (Q9NVM4 1-692): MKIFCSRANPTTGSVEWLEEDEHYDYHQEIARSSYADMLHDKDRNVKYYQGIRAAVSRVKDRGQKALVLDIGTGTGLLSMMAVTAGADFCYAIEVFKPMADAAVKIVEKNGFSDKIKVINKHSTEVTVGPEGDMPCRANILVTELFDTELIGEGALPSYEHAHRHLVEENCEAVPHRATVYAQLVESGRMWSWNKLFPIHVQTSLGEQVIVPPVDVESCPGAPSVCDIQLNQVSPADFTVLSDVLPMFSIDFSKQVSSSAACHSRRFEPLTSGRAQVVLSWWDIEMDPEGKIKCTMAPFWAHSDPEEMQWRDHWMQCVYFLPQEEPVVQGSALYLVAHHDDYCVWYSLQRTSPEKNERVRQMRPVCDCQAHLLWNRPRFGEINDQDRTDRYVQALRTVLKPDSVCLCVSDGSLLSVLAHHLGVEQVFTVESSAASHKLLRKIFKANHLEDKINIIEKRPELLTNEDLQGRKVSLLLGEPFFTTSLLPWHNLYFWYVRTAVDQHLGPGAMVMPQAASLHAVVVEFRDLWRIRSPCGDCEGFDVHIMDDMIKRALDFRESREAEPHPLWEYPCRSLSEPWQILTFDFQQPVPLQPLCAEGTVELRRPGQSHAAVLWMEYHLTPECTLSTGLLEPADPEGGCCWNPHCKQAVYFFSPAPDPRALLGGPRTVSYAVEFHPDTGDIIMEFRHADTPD
Experimental: as §1

PRMT8 = PRMT8 (Homo sapiens, UniProt Q9NR22); test: Methyltransferase inhibition panel: PRMT8; assay type: biochemical
Experimental: as §1

SETDB1 = SETDB1 (Homo sapiens, UniProt Q15047); test: Methyltransferase inhibition panel: SETDB1; assay type: biochemical
Experimental: as §1

[1] = system: wildtype and AD model (APP/PS1-transgenic) mice; test: Visual stimuli X-maze (ViS4M) test, colour and contrast modes; assay type: in vivo
Experimental: The effects of single and repeated ETP69 injections in mice were tested. The experimental timeline is depicted in FIG. 5. Three parallel injection conditions were tested: a single ETP69 condition, a boosted ETP69 injection, and repeated ETP69 injections. The single injection mice received one injection of ETP69 or DMSO at Day 0. The mice that received a boosted injection received one injection of ETP69 or DMSO at day 0 and one injection at day 9. The mice that received repeated injections received 11 injections of ETP69 or DMSO at day 0 or day 9. Both wildtype and AD model (APP/PS1-transgenic) mice were tested.
FIG. 6C-6F depicts the results of the mice on the color mode of the visual stimuli X-maze test. […] FIG. 6G-611 depict the results of the contrast mode of the visual stimuli X-maze test.
Old (18-month-old) mice were administered ETP69. Both a neurodegenerative model (AD+) and wild type siblings were tested. Mice were treated with i.p. injection of ETP69 [E; 10 mg/kg dissolved in dimethyl sulfoxide (DMSO)].

[2] = NT1721 20 μM, substrate Nucleosomes 0.05 mg/mL
[3] = read-out: Enzyme % Activity (relative to DMSO controls) Data 1
[4] = read-out: Enzyme % Activity (relative to DMSO controls) Data 2
[5] = NT1721 20 μM, substrate GST-GAR 5 μM

Chain of MLL3 Complex (Q15291 whole entry): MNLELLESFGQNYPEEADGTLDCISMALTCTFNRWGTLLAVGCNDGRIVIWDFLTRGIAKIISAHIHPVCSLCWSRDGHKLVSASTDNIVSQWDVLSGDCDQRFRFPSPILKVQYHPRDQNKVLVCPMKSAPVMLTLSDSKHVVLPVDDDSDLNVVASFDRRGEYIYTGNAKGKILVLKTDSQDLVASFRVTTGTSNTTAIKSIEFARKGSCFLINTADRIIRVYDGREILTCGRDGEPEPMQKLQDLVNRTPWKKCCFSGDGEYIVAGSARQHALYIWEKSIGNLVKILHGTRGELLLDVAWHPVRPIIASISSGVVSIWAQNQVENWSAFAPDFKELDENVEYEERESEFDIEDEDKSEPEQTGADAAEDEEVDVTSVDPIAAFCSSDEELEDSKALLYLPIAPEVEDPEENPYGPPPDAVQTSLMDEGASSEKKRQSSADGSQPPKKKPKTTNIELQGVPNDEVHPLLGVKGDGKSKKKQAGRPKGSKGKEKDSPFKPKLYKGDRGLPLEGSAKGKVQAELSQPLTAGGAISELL
Chain of MLL3 Complex (Q8NEZ4 4689-4911): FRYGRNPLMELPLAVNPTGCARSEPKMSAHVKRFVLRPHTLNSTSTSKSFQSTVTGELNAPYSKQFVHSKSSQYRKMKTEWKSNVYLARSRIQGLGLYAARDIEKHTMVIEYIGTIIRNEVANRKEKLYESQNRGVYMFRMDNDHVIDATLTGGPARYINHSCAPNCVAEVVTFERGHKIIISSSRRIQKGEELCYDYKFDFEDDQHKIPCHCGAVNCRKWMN
Chain of MLL3 Complex (Q9UBL3 96-628, further chain): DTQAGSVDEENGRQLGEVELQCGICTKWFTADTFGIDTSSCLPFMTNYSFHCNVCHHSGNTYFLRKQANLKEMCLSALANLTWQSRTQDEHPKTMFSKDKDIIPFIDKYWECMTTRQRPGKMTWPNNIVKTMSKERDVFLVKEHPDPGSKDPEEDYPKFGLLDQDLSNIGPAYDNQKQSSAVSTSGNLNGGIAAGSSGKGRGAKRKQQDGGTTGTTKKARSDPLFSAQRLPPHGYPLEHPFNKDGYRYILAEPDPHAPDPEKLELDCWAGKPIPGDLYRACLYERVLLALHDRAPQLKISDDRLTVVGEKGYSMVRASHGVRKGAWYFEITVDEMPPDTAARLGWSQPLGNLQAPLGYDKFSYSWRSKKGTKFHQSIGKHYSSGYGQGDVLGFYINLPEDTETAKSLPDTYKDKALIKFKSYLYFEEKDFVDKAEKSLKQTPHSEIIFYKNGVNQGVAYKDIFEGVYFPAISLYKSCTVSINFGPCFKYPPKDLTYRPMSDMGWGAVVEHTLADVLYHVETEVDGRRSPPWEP
Chain of MLL3 Complex (Q9C005 whole entry, further chain): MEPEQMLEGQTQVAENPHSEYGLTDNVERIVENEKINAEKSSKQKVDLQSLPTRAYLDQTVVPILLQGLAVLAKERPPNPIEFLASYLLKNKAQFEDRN
Chain of MLL4 Complex (Q9UMN6 2490-2715): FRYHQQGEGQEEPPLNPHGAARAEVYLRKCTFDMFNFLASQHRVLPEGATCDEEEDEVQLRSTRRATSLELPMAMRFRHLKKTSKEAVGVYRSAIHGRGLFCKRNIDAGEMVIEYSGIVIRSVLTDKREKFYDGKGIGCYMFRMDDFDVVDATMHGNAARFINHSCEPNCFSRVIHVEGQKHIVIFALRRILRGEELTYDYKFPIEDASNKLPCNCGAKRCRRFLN
Chain of MLL4 Complex (Q9C005 whole entry, further chain): as the sequence (Q9C005 whole entry, further chain) above
Chain of MLL4 Complex (Q9UBL3 whole entry, further chain): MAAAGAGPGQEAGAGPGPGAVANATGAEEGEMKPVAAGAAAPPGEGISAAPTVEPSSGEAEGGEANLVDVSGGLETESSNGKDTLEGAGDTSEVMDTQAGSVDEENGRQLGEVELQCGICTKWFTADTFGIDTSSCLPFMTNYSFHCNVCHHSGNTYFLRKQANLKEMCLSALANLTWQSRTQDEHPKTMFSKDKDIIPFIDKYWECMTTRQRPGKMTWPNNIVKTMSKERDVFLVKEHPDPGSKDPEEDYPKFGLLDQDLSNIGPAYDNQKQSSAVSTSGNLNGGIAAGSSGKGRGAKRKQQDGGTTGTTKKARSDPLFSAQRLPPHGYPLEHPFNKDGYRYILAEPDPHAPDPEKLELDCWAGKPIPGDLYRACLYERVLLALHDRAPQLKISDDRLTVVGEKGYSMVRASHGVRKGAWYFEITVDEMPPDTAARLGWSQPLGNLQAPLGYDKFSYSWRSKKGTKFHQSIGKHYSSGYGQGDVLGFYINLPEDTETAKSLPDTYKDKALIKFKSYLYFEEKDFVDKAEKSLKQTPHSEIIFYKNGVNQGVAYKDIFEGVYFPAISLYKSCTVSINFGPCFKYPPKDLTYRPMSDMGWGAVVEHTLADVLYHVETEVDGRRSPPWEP
Chain of MLL4 Complex (Q15291 whole entry, further chain): as the sequence (Q15291 whole entry) above
Chain of PRMT4 (Q86X55 whole entry): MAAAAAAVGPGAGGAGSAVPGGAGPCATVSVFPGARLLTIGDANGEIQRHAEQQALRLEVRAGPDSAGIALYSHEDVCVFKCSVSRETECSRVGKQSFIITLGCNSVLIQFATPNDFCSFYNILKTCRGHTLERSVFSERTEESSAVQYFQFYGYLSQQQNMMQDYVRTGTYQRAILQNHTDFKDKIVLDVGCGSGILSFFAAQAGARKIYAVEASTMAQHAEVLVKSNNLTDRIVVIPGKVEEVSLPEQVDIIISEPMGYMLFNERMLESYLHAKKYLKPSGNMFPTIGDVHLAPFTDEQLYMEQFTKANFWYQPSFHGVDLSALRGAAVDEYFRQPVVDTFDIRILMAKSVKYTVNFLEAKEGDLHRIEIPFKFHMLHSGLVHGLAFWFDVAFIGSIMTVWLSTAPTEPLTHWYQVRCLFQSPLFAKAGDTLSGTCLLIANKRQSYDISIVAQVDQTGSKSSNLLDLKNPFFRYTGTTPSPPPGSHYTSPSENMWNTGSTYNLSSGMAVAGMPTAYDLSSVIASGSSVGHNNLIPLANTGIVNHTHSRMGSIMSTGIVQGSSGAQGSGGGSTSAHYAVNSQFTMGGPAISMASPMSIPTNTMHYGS
Chain of PRMT8 (Q9NR22 whole entry): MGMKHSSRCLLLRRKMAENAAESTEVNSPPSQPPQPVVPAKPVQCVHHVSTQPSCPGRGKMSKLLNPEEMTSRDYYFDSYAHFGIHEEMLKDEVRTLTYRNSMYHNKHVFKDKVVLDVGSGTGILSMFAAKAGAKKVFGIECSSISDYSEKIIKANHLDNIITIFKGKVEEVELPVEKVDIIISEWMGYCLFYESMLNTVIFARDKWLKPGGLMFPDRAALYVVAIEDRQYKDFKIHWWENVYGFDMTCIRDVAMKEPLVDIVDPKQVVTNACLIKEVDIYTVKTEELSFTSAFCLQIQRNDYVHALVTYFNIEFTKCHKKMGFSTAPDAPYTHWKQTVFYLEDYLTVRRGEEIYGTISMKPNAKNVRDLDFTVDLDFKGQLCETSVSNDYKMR
Chain of DOT1L (Q8TEK3 whole entry): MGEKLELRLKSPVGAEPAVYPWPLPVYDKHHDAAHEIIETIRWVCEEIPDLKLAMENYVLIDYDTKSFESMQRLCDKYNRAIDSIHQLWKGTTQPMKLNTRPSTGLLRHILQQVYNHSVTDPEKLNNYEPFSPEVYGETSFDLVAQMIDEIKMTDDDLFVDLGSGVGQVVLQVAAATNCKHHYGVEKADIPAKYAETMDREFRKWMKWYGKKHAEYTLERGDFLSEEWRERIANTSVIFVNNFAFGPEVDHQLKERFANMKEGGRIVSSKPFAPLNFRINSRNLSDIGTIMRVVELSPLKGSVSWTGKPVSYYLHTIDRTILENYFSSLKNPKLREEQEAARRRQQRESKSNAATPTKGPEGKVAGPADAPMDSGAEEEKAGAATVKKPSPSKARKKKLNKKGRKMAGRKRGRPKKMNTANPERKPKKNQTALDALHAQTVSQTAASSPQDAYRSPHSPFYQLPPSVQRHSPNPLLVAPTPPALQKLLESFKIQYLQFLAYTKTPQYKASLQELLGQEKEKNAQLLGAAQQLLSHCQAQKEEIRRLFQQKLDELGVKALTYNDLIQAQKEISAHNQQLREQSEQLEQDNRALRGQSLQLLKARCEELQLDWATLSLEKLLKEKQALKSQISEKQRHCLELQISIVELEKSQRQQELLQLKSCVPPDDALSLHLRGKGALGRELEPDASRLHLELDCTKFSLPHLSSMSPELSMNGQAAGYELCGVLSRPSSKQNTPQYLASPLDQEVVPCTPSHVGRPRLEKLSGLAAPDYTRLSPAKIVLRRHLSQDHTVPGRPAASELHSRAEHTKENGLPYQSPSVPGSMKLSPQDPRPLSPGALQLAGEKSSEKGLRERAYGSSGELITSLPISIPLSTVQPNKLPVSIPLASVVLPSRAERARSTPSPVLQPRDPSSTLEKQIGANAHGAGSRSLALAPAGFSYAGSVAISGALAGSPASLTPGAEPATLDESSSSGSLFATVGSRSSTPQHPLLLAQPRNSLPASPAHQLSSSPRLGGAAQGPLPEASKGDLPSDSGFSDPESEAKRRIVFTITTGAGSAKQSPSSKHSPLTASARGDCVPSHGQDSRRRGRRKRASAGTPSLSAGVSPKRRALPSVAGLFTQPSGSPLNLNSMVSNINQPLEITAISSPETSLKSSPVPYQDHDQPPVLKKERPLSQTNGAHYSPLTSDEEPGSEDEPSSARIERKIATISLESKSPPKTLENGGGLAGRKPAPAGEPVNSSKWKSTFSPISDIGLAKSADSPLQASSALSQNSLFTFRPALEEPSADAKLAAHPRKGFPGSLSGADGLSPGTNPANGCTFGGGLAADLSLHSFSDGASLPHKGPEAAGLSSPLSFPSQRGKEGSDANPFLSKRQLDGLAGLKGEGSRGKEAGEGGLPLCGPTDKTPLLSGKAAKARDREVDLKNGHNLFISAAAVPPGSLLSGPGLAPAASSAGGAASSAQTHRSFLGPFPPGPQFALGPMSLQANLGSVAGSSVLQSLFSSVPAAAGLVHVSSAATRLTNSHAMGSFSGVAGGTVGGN

CN1C(=O)[C@@]23C[C@](C)(C#N)[C@H](c4ccc5c(c4)OCO5)N2C(=O)[C@]1(C)SS3 (racemic) [ETP69, Rac-(3S,6S,7S,8aS)-6-(benzo[d][1,3]dioxol-5-yl)-2,3,7-trimethyl-1,4-dioxohexahydro-6H-3,8a-epidithiopyrrolo[1,2-a]pyrazine-7-carbonitrile]
Enzyme % Activity (relative to DMSO controls) Data 1 (ASH1L; [2]): 3.42%
Enzyme % Activity (relative to DMSO controls) Data 2 (ASH1L; [2]): 4.17%
inhibition relative to DMSO controls (ASH1L; summary of Table 1): at least 7500
Enzyme % Activity (relative to DMSO controls) Data 1 (DNMT3a): 76.81%
Enzyme % Activity (relative to DMSO controls) Data 2 (DNMT3a): 78.12%
remaining activity at 20 µM (DOT1L; [3]): 104%
remaining activity at 20 µM (DOT1L; [4]): 98.5%
Enzyme % Activity (relative to DMSO controls) Data 1 (EZH1 Complex): 103.44%
Enzyme % Activity (relative to DMSO controls) Data 2 (EZH1 Complex): 104.86%
remaining activity at 20 µM (MLL3 Complex; [3]): 36.6%
remaining activity at 20 µM (MLL3 Complex; [4]): 32.6%
inhibition relative to DMSO controls (MLL3 Complex; summary of Table 1): at least 7500
remaining activity at 20 µM (MLL4 Complex; [3]): 1.32%
remaining activity at 20 µM (MLL4 Complex; [4]): 1.17%
inhibition relative to DMSO controls (MLL4 Complex; summary of Table 1): at least 7500
remaining activity at 20 µM (PRMT4; [3]): 115%
remaining activity at 20 µM (PRMT4; [4]): 114%
Enzyme % Activity (relative to DMSO controls) Data 1 (PRMT7; [5]): 66.70%
Enzyme % Activity (relative to DMSO controls) Data 2 (PRMT7; [5]): 66.73%
inhibition relative to DMSO controls (PRMT7; summary of Table 1): at least 7500
remaining activity at 20 µM (PRMT8; [3]): 95.7%
remaining activity at 20 µM (PRMT8; [4]): 94.7%
remaining activity at 20 µM (SETDB1; [3]): 40.1%
remaining activity at 20 µM (SETDB1; [4]): 37.1%
inhibition relative to DMSO controls (SETDB1; summary of Table 1): at least 7500
percent alternation and bidirectional movement ([1]; color mode, AD+ mice): significant increase
percent alternation ([1]; contrast mode, AD+ mice): significant increase
colour X-maze spontaneous alternations ([1]; old WT mice, single dose 10 mg/kg i.p., p=0.0027): increased
